Drawing on US20200131159A1, “POSITIVE ALLOSTERIC MODULATORS OF THE MUSCARINIC ACETYLCHOLINE RECEPTOR M1” (Vanderbilt University, priority 2018, published 2020), this text covers Emax and EC50 for twelve molecules.

In the experiment the target is T1, human mAChR M1 (Homo sapiens, UniProt P11229).
T1 construct: hM1 and hM4 cDNAs were purchased from Missouri S&T cDNA Resource; host or cells: CHO-K1 cells, stably transfected with Lipofectamine2000
T1 sequence (P11229 1-460): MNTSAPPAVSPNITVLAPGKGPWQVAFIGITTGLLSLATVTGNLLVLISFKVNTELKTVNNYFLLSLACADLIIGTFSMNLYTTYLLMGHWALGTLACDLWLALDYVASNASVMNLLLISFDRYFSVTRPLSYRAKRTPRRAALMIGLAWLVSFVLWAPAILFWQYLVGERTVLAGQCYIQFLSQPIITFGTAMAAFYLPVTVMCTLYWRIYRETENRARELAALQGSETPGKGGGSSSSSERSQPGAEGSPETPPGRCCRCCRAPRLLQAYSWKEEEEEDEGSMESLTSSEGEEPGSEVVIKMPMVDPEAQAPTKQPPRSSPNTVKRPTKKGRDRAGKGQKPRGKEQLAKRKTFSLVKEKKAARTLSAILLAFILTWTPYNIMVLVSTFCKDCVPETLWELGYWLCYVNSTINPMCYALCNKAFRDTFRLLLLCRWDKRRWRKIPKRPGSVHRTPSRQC
Nature of the experiment: mAChR M1 cell-based functional assay (calcium mobilization, PAM mode, EC20 acetylcholine). The conditions noted are these: CHO-K1 cells expressing hM1, calcium flux (Fluo-4); for Emax: EC20 acetylcholine response; for EC50: concentration-dependent increase in the EC20 acetylcholine response. The text has this:
Chinese hamster ovary (CHO-K1) cells stably expressing rat (r)M1 were purchased from the American Type Culture Collection and cultured according to their indicated protocol. CHO cells stably expressing human (h)M2, hM3, and hM5 were described previously (Levey, et al., 1991); hM1 and hM4 cDNAs were purchased from Missouri S&T cDNA Resource; rM4 cDNA was provided by T. I. Bonner (National Institutes of Health, Bethesda, Md.). rM2 and rM3 were cloned from a rat brain cDNA library and sequence verified. hM1, rM2, rM3, hM4, and rM4 cDNAs were used to stably transfect CHO-K1 cells purchased from the American Type Culture Collection using Lipofectamine2000. To make stable rM2, hM2, rM3, hM4, and rM4 cell lines for use in calcium mobilization assays, these cells also were stably transfected with a chimeric G-protein (Gqi5) (provided by B. R. Conklin, University of California, San Francisco) using Lipofectamine 2000. rM1, hM1, rM3, hM3, rM5, and hM5 cells were grown in Ham's F-12 medium containing 10% heat-inactivated fetal bovine serum (FBS), 20 mM HEPES, and 50 µg/mL G418 sulfate. rM2-Gqi5, hM2-Gqi5, and hM4-Gqi5 cells were grown in the same medium also containing 500 μg/mL Hygromycin B. Stable rM4-Gqi5 cells were grown in DMEM containing 10% heat-inactivated FBS, 20 mM HEPES, 400 μg/mL G418 sulfate, and 500 μg/mL Hygromycin B.
For high throughput measurement of agonist-evoked increases in intracellular calcium, CHO-K1 cells stably expressing muscarinic receptors were plated in growth medium lacking G418 and hygromycin at 15,000 cells/20 μL/well in Greiner 384-well black-walled, tissue culture (TC)-treated, clear-bottom plates (VWR). Cells were incubated overnight at 37° C. and 5% CO2. The next day, cells were washed using an ELX 405 (BioTek) with four washes (80 μL) of assay buffer then aspirated to 20 μL. Next, 20 μL of 16 μM Fluo-4/acetoxymethyl ester (Invitrogen, Carlsbad, Calif.) prepared as a 2.3 mM stock in DMSO and mixed in a 1:1 ratio with 10% (w/v) Pluronic F-127 and diluted in assay buffer was added to the wells and the cell plates were incubated for 50 min at 37° C. and 5% CO2. Dye was removed by washing with the ELX 405 (four 80 μL washes of assay buffer) then aspirated to 20 μL. Compound master plates were formatted in an 11 point CRC format (1:3 dilutions) in 100% DMSO with a starting concentration of 10 mM using the BRAVO liquid handler (Agilent). Test compound CRCs were then transferred to daughter plates (240 nL) using the Echo acoustic plate reformatter (Labcyte, Sunnyvale, Calif.) and then diluted into assay buffer (40 μL) to a 2× stock using a Thermo Fisher Combi (Thermo Fisher Scientific, Waltham, Mass.).
Calcium flux was measured using the Functional Drug Screening System (FDSS) 6000 (Hamamatsu Corporation, Tokyo, Japan) as an increase in the fluorescent static ratio. Compounds were applied to cells (20 μL, 2×) using the automated system of the FDSS 6000 at 4 s into the 300 s protocol and the data were collected at 1 Hz. […] Agonist activity was analyzed as a concentration-dependent increase in calcium mobilization upon compound addition. Emax values for agonist activity are expressed relative to the maximum for acetylcholine. Positive allosteric modulator activity was analyzed as a concentration-dependent increase in the EC20 acetylcholine response. Antagonist activity was analyzed as a concentration-dependent decrease in the […] acetylcholine response. Concentration-response curves were generated using a four-parameter logistical equation in XLfit curve fitting software (IDBS, Bridgewater, N.J.) for Excel (Microsoft, Redmond, Wash.) or Prism (GraphPad Software, Inc., San Diego, Calif.).
Activity (EC50 and Emax) was determined in the mAChR M1 cell-based functional assay as described above and the data are shown in Table 2. The compound numbers correspond to the compound numbers used in Table 1.

On to `O=C(N[C@H]1CCOC[C@@H]1O)c1cc(Cc2ccc(-n3cccn3)cc2)cc2cccnc12` [compound 1, N-[(3R,4S)-3-hydroxytetrahydropyran-4-yl]-6-[(4-pyrazol-1-ylphenyl)methyl]quinoline-8-carboxamide], for which the Emax (commonly the maximal effect, on the per cent scale that the assay sets) is 80% and the EC50 (as a rule, the concentration giving half of the maximal effect) is 460 nM.

For the molecule `O=C(N[C@H]1CCCC[C@@H]1O)c1cc(Cc2ccc(-n3cccn3)cc2)cc2cccnc12` [compound 2, N-[(1S,2S)-2-hydroxycyclohexyl]-6-[(4-pyrazol-1-ylphenyl)methyl]quinoline-8-carboxamide], the Emax stood at 81% and the EC50 worked out at 1000 nM.

As to `O=C(NC1CCOCC1)c1cc(Cc2ccc(-n3cccn3)cc2)cc2cccnc12` [compound 3, 6-[(4-pyrazol-1-ylphenyl)methyl]-N-tetrahydropyran-4-yl-quinoline-8-carboxamide], the Emax amounted to 45% and the EC50 amounted to 2980 nM.

In the case of `O=C(NC1CC2(COC2)C1)c1cc(Cc2ccc(-n3cccn3)cc2)cc2cccnc12` [compound 4, N-(2-oxaspiro[3.3]heptan-6-yl)-6-[(4-pyrazol-1-ylphenyl)methyl]quinoline-8-carboxamide], the Emax is 67% and the 50% effective concentration (EC50) was found to be 6030 nM.

As to `O=C(N[C@H]1CCC[C@@H]1O)c1cc(Cc2ccc(-n3cccn3)cc2)cc2cccnc12` [compound 5, N-[(1S,2S)-2-hydroxycyclopentyl]-6-[(4-pyrazol-1-ylphenyl)methyl]quinoline-8-carboxamide], the Emax is 76% and the concentration for a half-maximal effect (EC50) is 1660 nM.

For the molecule `O=C(N[C@H]1CC[C@@H]1O)c1cc(Cc2ccc(-n3cccn3)cc2)cc2cccnc12` [compound 6, N-[(1S,2S)-2-hydroxycyclobutyl]-6-[(4-pyrazol-1-ylphenyl)methyl]quinoline-8-carboxamide], the Emax came to 57% and the EC50 worked out at 5490 nM.

For `O=C(N[C@H]1CCCCC[C@@H]1O)c1cc(Cc2ccc(-n3cccn3)cc2)cc2cccnc12` [compound 7, N-[(1S,2S)-2-hydroxycycloheptyl]-6-[(4-pyrazol-1-ylphenyl)methyl]quinoline-8-carboxamide], the Emax came to 87% and the 50% effective concentration (EC50) is 2030 nM.

Regarding `O=C(NCC1CCOCC1)c1cc(Cc2ccc(-n3cccn3)cc2)cc2cccnc12` [compound 8, 6-[(4-pyrazol-1-ylphenyl)methyl]-N-(tetrahydropyran-4-ylmethyl)quinoline-8-carboxamide], the Emax came out at 49% and the EC50 worked out at 8160 nM.

Turning to `Cn1ccc(-c2ccc(Cc3cc(C(=O)N[C@H]4CCOC[C@@H]4O)c4ncccc4c3)cn2)n1` [compound 9, N-[(3R,4S)-3-hydroxytetrahydropyran-4-yl]-6-[[6-(1-methylpyrazol-3-yl)-3-pyridyl]methyl]quinoline-8-carboxamide], the maximum response (Emax) worked out at 79% and the EC50 is 308 nM.

On to `Cn1ccc(-c2ccc(Cc3cc(C(=O)N[C@H]4CCCCC[C@@H]4O)c4ncccc4c3)cn2)n1` [compound 10, N-[(1S,2S)-2-hydroxycycloheptyl]-6-[[6-(1-methylpyrazol-3-yl)-3-pyridyl]methyl]quinoline-8-carboxamide], for which the Emax worked out at 84% and the EC50 came to 922 nM.

`Cn1ccc(-c2ccc(Cc3cc(C(=O)N[C@H]4CCCC[C@@H]4O)c4ncccc4c3)cn2)n1` [compound 11, N-[(1S,2S)-2-hydroxycyclohexyl]-6-[[6-(1-methylpyrazol-3-yl)-3-pyridyl]methyl]quinoline-8-carboxamide]: the maximum response (Emax) came out at 82% and the EC50 stood at 384 nM.

Turning to `Cn1ccc(-c2ccc(Cc3cc(C(=O)N[C@H]4CCC[C@@H]4O)c4ncccc4c3)cn2)n1` [compound 12, N-[(1S,2S)-2-hydroxycyclopentyl]-6-[[6-(1-methylpyrazol-3-yl)-3-pyridyl]methyl]quinoline-8-carboxamide], the Emax stood at 82% and the EC50 is 1390 nM.
